Experimental data: ChEMBL document CHEMBL1143084, “Synthesis and structure based optimization of novel Akt inhibitors” (Bioorg Med Chem Lett, 2008)
pIC50: −log10 of the molar value.

Legend:
[1] = molecular target: T1, RAC-alpha serine/threonine-protein kinase (Homo sapiens, UniProt P31749); assay: Inhibition of AKT1
[2] = molecular target: T1, RAC-alpha serine/threonine-protein kinase; assay: Inhibition of AKT1 in human U87 cells after 2 hrs by ELISA; format: cell-based, U-87MG ATCC
[3] = Inhibition of PKA
[4] = Antitumor activity against human myristoylated Akt1-activated rat Rat-1a cells xenografted mouse assessed as tumor growth inhibition at 50 mg/kg, qd, po for 10 days; format: functional; settings: 240 h

T1 sequence (P31749 whole entry): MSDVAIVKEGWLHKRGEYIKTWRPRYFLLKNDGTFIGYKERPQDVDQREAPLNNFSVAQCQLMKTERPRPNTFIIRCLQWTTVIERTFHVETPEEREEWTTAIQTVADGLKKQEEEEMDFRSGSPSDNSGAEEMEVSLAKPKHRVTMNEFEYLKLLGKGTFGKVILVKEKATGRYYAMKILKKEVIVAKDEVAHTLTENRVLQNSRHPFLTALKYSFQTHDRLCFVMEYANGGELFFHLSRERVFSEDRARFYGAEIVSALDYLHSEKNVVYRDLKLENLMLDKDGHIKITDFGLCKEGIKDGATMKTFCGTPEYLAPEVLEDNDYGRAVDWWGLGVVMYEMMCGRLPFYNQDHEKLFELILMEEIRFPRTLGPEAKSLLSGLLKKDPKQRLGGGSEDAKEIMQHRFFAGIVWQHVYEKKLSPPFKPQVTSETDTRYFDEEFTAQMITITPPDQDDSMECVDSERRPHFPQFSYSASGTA

| pIC50 [1] | pIC50 [2] | pIC50 [3] | Compound | inhibition in vivo at 50 mg/kg [4] [%] |
| --- | --- | --- | --- | --- |
| 5.50 |  |  | CS(=O)(=O)N1CCC2(CC1)CN(c1ncnc3[nH]ccc13)c1ccc(F)cc12 |  |
| 5.88 |  |  | c1ccc(Cc2c[nH]c3ncnc(N4CC5(CCNCC5)c5ccccc54)c23)cc1 |  |
| 8.24 | 7.19 |  | Clc1c[nH]c2ncnc(N3CC4(CCNCC4)c4ccccc43)c12 |  |
| < 5.00 |  |  | Cc1nnc(-c2ccc(Cl)cc2Nc2ncnc3[nH]ccc23)[nH]1 |  |
| 6.37 |  |  | Cc1c[nH]c2ncnc(Nc3ccccc3-c3nnc[nH]3)c12 |  |
| 8.32 | 7.29 |  | Clc1ccc2c(c1)C1(CCNCC1)CN2c1ncnc2[nH]ccc12 |  |
| 8.51 | 7.12 |  | Fc1ccc2c(c1)C1(CCNCC1)CN2c1ncnc2[nH]ccc12 |  |
| 5.55 |  |  | CC(=O)N1CCC2(CC1)CN(c1ncnc3[nH]ccc13)c1ccc(F)cc12 |  |
| < 5.00 |  |  | Cn1ccc2c(Nc3ccccc3-c3nnc[nH]3)ncnc21 |  |
| 6.53 |  |  | c1nc(N2CCc3nc[nH]c3C2)c2cc[nH]c2n1 |  |
| 8.62 | 7.30 | 8.44 | N#Cc1c[nH]c2ncnc(N3CC4(CCNCC4)c4ccccc43)c12 | 68 |
| 6.77 |  |  | Cc1nnc(-c2cc(Cl)ccc2Nc2ncnc3[nH]ccc23)[nH]1 |  |
| 6.68 |  |  | c1ccc(-c2nnc[nH]2)c(Nc2ncnc3[nH]ccc23)c1 |  |
| 8.32 | 6.91 |  | Cc1c[nH]c2ncnc(N3CC4(CCNCC4)c4ccccc43)c12 |  |
| 6.50 |  |  | Clc1c[nH]c2ncnc(Nc3ccccc3-c3nnc[nH]3)c12 |  |
| 8.28 | 7.02 |  | c1ccc2c(c1)N(c1ncnc3[nH]ccc13)CC21CCNCC1 |  |

| Compound | pIC50 [1] | pIC50 [2] | pIC50 [3] | inhibition in vivo at 50 mg/kg [4] [%] |
| --- | --- | --- | --- | --- |
| CN1CCC2(CC1)CN(c1ncnc3[nH]ccc13)c1ccccc12 | 7.90 | 6.87 |  |  |
